For assay [1], the system named is extracellular domains of the LMP1 protein. As to the kind of experiment: Immunogenic potency of LMP1 antigens: serum antibodies by ELISA after immunization. Format: in vivo, EBV. As to conditions: mice immunized with LMP1-derived peptide coupled to KLH or lipid. On the procedure: (§1) The LMP1-derived peptides containing only one exogenous cystein (SEQ ID Nos 10, 11, 12, 15, 16) were individually coupled to activated KLH (Imject maleimide-activated KLH®, Perbio) according to the supplier's protocol. Mice (4 animals per group) were injected subcutaneously in the flank, with an emulsion of peptide (50 μg in 0.1 ml H20) and of complete Freund's adjuvant (0.1 ml). On days 21, 42 and 62 following the first injection (D0), the animals are given a boost injection, by the same route, with the same amount of antigen but in incomplete Freund's adjuvant. […]
(§2) Blood samples are taken, by retro-orbital puncture, from the immunized mice, and the sera are then recovered and frozen at −20° C. in 20-μl fractions. […] The reaction is stopped by adding 4N sulfuric acid, and the absorption at 492 nm is measured using an automatic microplate reader (Dynatech).
Antibodies directed against the extracellular domains of the EBV LMP1 protein were prepared by immunization of mice with the peptides SEQ ID Nos 10 and 11 coupled to KLH, or else with the peptide SEQ ID No. 13 coupled to cholesterol, as described in example 1. The kinetics of appearance of the serum antibodies directed against the extracellular domains of the LMP1 protein were analyzed by ELISA, as described in example 1.

For assay [2], the system named is extracellular domains of the LMP2A protein. The assay can be described thus: Immunogenic potency of the LMP2A antigens in mice and rats (ELISA). In kind it is in vivo, EBV. As to conditions: comparison of LMP2A peptides SEQ ID Nos 15, 16, 17. How it is done:
as §1, §2
Antibodies directed against the extracellular domains of the LMP2A proteins were prepared by immunization of batches of 4 BALB/c mice or of batches of 3 LOU/M rats with the peptides SEQ ID Nos 15, 16 and 17 coupled to activated KLH as described in example 1. The response in terms of antibodies directed against the extracellular domains of the LMP2A protein was analyzed by ELISA, as described in example 1.
(In general: An ELISA detects its analyte on a solid surface through an enzyme-linked reagent.)

In the case of “SEQ ID No: 14: LMP1-(ED1 + ED2 + ED3) with linking residues between domains (MSDWTGGALCLWNLHGQALCLYLQQNWWT; Epstein Barr Virus)”, in assay [1], the “Immunogenic Potency” value was “+(IgM)”.

For the substance TWRIEDPPFNSLCVDAVLQLSPL [SEQ ID No. 16], the humoral response entry in assay [2] is reported as “best humoral response”.

(Values after patent publication US7803378B2, “Antigen imitating extracellular areas of membrane proteins of type III produced from intracellular pathogenic micro-organisms, derived conformational antibodies and the use thereof” (priority 2003, dated 2010).)
